Assay results from paper PMC12394179, “Re‐engineering a transferase scaffold for indole C3 methylation in diketopiperazines” (Protein Science : A Publication of the Protein Society, 2025).

Target: T1, SeMT (Saccharopolyspora erythraea, UniProt A4FFC0)
T1 construct: gene SACE_3471; codon-harmonized synthetic gene in pET28a(+), E. coli BL21(DE3), Ni-NTA purified; dimer
T1 sequence (A4FFC0 1-266): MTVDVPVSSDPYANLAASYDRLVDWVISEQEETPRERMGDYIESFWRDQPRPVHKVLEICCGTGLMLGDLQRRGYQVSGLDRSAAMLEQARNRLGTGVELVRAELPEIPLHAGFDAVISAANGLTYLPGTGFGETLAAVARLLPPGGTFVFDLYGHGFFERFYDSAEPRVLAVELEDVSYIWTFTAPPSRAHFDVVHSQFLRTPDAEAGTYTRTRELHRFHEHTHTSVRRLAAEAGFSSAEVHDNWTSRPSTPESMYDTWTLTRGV
Assay: X-ray crystallography
Type: binding
Conditions: co-crystal with 2 mM SAH, pH 5.6 reservoir; cofactor site (product of methyl transfer)

In the case of `Nc1ncnc2c1ncn2[C@@H]1O[C@H](CSCC[C@H](N)C(=O)O)[C@@H](O)[C@H]1O` [SAH], the X-ray crystallography is reported as “the demethylated cofactor SAH (included in the sample for crystallization) is found embraced”.
